Measurements: patent US8735414B2 (priority 2009, dated 2014)

Legend:
[1] = test system: bicistronic HCV replicon (replicon RNA, GenBank Accession No. AJ242654); experiment: HCV Replicon Assay; format: cell-based; settings: Hepatitis C virus, 72 h, read-out: Replicon IC50

Compound	IC50 [1] [nM]	melting point [°C]
Cc1ccc2c(C#N)c(-c3ncc(S(=O)(=O)N[C@@H](C)C(F)(F)F)cn3)n(CC3CC3)c2c1 [compound 402, 2-[3-cyano-1-(cyclopropylmethyl)-6-methyl-1H-indol-2-yl]-N-[(2S)-1,1,1-trifluoropropan-2-yl]pyrimidine-5-sulfonamide]	< 500	259 to 260
Cc1cc2c(cc1F)c(C#N)c(-c1ncc(S(=O)(=O)N[C@@H](C)C(F)(F)F)cc1C)n2C1CCCC1 [compound 837, 6-(3-cyano-1-cyclopentyl-5-fluoro-6-methyl-1H-indol-2-yl)-5-methyl-N-[(2S)-1,1,1-trifluoropropan-2-yl]pyridine-3-sulfonamide]	< 500	237 to 242
Cc1ccc2c(c1)c(C#N)c(-c1ccc(S(=O)(=O)NC3(C(F)(F)F)CC3)cn1)n2C1CCCC1 [compound 313, 6-(3-cyano-1-cyclopentyl-5-methyl-1H-indol-2-yl)-N-[1-(trifluoromethyl)cyclopropyl]pyridine-3-sulfonamide]	< 500	209 to 214
C[C@@H](NS(=O)(=O)c1ccc(-c2c(C#N)c3cc(F)c(C4CC4)cc3n2C2CCCC2)nc1)C(F)(F)F [compound 662, 6-(3-cyano-1-cyclopentyl-6-cyclopropyl-5-fluoro-1H-indol-2-yl)-N-[(2R)-1,1,1-trifluoropropan-2-yl]pyridine-3-sulfonamide]	< 500	180 to 181
CC(NS(=O)(=O)c1ccc(-c2c(C#N)c3ccc(OC(F)F)cc3n2C2CCCC2)nc1)C(F)(F)F (stereo not shown) [compound 53, 6-[3-cyano-1-cyclopentyl-6-(difluoromethoxy)-1H-indol-2-yl]-N-(1,1,1-trifluoropropan-2-yl)pyridine-3-sulfonamide]	< 500	189 to 195
COc1ccc2c(C#N)c(-c3ncc(S(=O)(=O)N[C@@H](C)C4CC4)cn3)n(C3CCCC3)c2c1 [compound 206, 2-(3-cyano-1-cyclopentyl-6-methoxy-1H-indol-2-yl)-N-[(1S)-1-cyclopropylethyl]pyrimidine-5-sulfonamide]	500 to 2000	192 to 194
C[C@H](NS(=O)(=O)c1ccc(-c2c(C#N)c3ccc(OC(F)F)cc3n2-c2ccccc2)nc1)C(F)(F)F [compound 553, 6-[3-cyano-6-(difluoromethoxy)-1-phenyl-1H-indol-2-yl]-N-[(2S)-1,1,1-trifluoropropan-2-yl]pyridine-3-sulfonamide]	< 500	209 to 211
N#Cc1c(-c2ncc(S(=O)(=O)NC(CF)CF)cn2)n(C2CCCCC2)c2cc(Cl)ccc12 [compound 517, 2-(6-chloro-3-cyano-1-cyclohexyl-1H-indol-2-yl)-N-(1,3-difluoropropan-2-yl)pyrimidine-5-sulfonamide]	< 500	228 to 234
Cc1cc2c(cc1F)c(C#N)c(-c1ccc(S(=O)(=O)N[C@@H](C)C(F)(F)F)cn1)n2-c1cccnc1 [compound 893, 6-[3-cyano-5-fluoro-6-methyl-1-(pyridin-3-yl)-1H-indol-2-yl]-N-[(2S)-1,1,1-trifluoropropan-2-yl]pyridine-3-sulfonamide]	< 500	217 to 221
C[C@@H](NS(=O)(=O)c1ccc(-c2c(C#N)c3cc(C(F)F)ccc3n2C2CCCC2)nc1)C(F)(F)F [compound 538, 6-[3-cyano-1-cyclopentyl-5-(difluoromethyl)-1H-indol-2-yl]-N-[(2R)-1,1,1-trifluoropropan-2-yl]pyridine-3-sulfonamide]	< 500	186 to 188
CCc1cc2c(cc1F)c(C(N)=O)c(-c1ccc(S(=O)(=O)NC(C)(C)C(F)(F)F)cn1)n2-c1ncccn1 [compound 978, 6-ethyl-5-fluoro-1-(pyrimidin-2-yl)-2-{5-[(1,1,1-trifluoro-2-methylpropan-2-yl)sulfamoyl]pyridin-2-yl}-1H-indole-3-carboxamide]	2000 to 5000	261 to 269
